# Measured values reported in ChEMBL document CHEMBL1201862, “PubChem BioAssay data set” (2004).
# Active and inactive are the calls of the source.
# How the values were obtained:
# [1] = intracellular Trypanosoma cruzi inhibitors in host cells – cell-based, plate reader, cherry-pick samples, set 3, dose response (AID 651818); assay type: functional;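 further: compounds incubated with infected cells for about four days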
# [2] = biological target: Endoplasmic reticulum aminopeptidase 2 (Homo sapiens, UniProt Q6P179); test: ERAP2 aminopeptidase inhibitors, dose response, selectivity assay for selective ERAP1 modulator project, biochemical, fluorescence plate reader, cherry-picked, set 2 (AID 743320)
# [3] = IRAP inhibitors, dose response, selectivity assay for ERAP1 modulator project, biochemical, Leu-AMC fluorescence, cherry-picked samples, set 2 (AID 743340)
# Paired box protein Pax-8 = Paired box protein Pax-8 (Homo sapiens, UniProt Q06710); test: inhibitors of PAX8-driven TPO luciferase reporter, dose response, RMG-I cells, cherry-pick (AID 687027); assay type: functional, cell-based;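 further: luciferase reporter driven by Pax8 target thyroperoxidase promoter measured by SteadyGlo luminescence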
# [4] = PAX2 cell-based inhibition, dose response, selectivity assay for PAX8 inhibitor project, plate reader, dry powder samples (AID 743048); assay type: functional;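 further: HEK293 cells carrying a WT1 promoter luciferase reporter driven by expressed Pax2; potency is for inhibition of Pax2 driven reporter signal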
# [5] = cytotoxicity in COV362 ovarian cancer cells, dose response, cytotoxicity control for PAX8 inhibitor project, cell-based, plate reader, dry powder, SA12 (AID 743144); assay type: functional
# [6] = IOSE-T80 ovarian epithelial cell cytotoxicity, dose response, cytotoxicity control for PAX8 inhibitor project, plate reader, dry powder samples (AID 743045); assay type: functional, cell-based
# [7] = NIH:OVCAR-3 ovarian cancer cell cytotoxicity, dose response, PAX8 inhibitor project, plate reader, dry powder samples (AID 743044); assay type: functional, cell-based
# [8] = PAX5 activity inhibitors, dose response, selectivity assay for PAX8 inhibitor project, cell-based, plate reader, dry powder samples (AID 743047); assay type: functional;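 further: HEK293 cells carrying a Pax5 driven CD19 promoter luciferase reporter; potency of inhibitors that lower reporter luminescence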
# [9] = IGROV1 ovarian cancer cell cytotoxicity, dose response, PAX8 inhibitor project, plate reader, dry powder samples (AID 743043); assay type: functional, cell-based; details: IGROV-1
# [10] = cytotoxicity in OVCAR4 cells, dose response, cytotoxicity control for PAX8 inhibitor project, cell-based, plate reader, dry powder, SA11 (AID 743150); assay type: functional; details: OVCAR-4
# [11] = cytotoxicity in COV434 cells, dose response, cytotoxicity control for PAX8 inhibitor project, cell-based, plate reader, dry powder, SA7 (AID 743145); assay type: functional
# [12] = cytotoxicity in OV-90 ovarian cancer cells, dose response, PAX8 inhibitor project, cell-based, plate reader, dry powder, SA8 (AID 743149); assay type: functional
# [13] = cytotoxicity dependent on PAX8, dose response, cell-based, plate reader, dry powder (AID 743049); assay type: functional
# [14] = Late stage assay provider results from the probe development effort to identify inhibitors of the Plasmodium falciparum M18 Aspartyl Aminopeptidase (M18AAP): radiolabel-based cell-based dose response assay to identify compounds that inhibit P. falciparum growth in RBCs, Set 2..; assay type: functional
# [15] = biological target: Potassium channel subfamily K member 9 (Homo sapiens, UniProt Q9NPC2); test: TASK3 (KCNK9) channel inhibitors, thallium flux, SAR follow-up, selectivity assay for TASK1 inhibitor project, cell-based, FluxOR thallium flux, concentration-response (AID 652211); assay type: functional;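 further: potency is for inhibitors of the channel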
# [16] = biological target: Potassium channel subfamily K member 3 (Homo sapiens, UniProt O14649); test: TASK1 (KCNK3) potassium channel inhibitors, SAR follow-up, CHO cells, FluxOR thallium flux (AID 652212); assay type: functional
# [17] = Late-stage results from the probe development effort to identify antagonists of arginine vasopressin receptor 1a (AVPR1a): fluorescence-based cell-based dose response AVPR1a inhibition assay.; assay type: functional
# Vasopressin V1b receptor = Vasopressin V1b receptor (Homo sapiens, UniProt P47901); test: Late-stage results from the probe development effort to identify antagonists of arginine vasopressin receptor 1a (AVPR1a): fluorescence-based cell-based dose response AVPR1b inhibition counterscreen assay.; assay type: functional
# Vasopressin V2 receptor = Vasopressin V2 receptor (Homo sapiens, UniProt P30518); test: Late-stage results from the probe development effort to identify antagonists of arginine vasopressin receptor 1a (AVPR1a): fluorescence-based cell-based dose response AVPR2 inhibition counterscreen assay.; assay type: functional
# [18] = Late-stage results from the probe development effort to identify antagonists of arginine vasopressin receptor 1a (AVPR1a): fluorescence-based cell-based dose response OXTR inhibition counterscreen assay.; assay type: functional
# [19] = biological target: C-X-C chemokine receptor type 4 (Homo sapiens, UniProt P61073); test: SAR analysis of small molecule antagonists of the CXCR6 receptor using a CXCR4 receptor luminescent beta-arrestin counterscreen.; assay type: functional
# [20] = biological target: T1, C-C chemokine receptor type 6 (Homo sapiens, UniProt P51684); test: SAR analysis of small molecule antagonists of the CXCR6 receptor using a CCR6 receptor luminescent beta-arrestin counterscreen.; assay type: functional
# T1 sequence (P51684 whole entry): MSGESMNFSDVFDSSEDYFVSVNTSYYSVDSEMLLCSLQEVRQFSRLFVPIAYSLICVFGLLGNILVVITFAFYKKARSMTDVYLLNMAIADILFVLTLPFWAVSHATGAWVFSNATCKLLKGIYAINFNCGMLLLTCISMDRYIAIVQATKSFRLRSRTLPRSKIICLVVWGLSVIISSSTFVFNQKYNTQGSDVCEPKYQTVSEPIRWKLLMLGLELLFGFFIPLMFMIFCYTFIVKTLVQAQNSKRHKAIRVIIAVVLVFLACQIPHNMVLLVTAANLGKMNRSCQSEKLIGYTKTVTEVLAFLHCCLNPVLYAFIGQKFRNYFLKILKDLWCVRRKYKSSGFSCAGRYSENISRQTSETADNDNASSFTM
# Sequence of Vasopressin V2 receptor (P30518 whole entry): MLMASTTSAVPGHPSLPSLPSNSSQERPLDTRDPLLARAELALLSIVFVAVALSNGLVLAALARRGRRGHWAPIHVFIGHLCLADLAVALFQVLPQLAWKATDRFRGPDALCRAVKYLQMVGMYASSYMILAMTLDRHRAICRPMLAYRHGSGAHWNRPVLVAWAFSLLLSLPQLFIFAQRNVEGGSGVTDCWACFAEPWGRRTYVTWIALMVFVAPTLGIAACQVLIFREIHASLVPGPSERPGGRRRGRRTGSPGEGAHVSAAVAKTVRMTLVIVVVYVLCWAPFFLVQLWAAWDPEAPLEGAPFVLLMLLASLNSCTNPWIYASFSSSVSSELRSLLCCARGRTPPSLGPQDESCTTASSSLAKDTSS
# Sequence of Paired box protein Pax-8 (Q06710 whole entry): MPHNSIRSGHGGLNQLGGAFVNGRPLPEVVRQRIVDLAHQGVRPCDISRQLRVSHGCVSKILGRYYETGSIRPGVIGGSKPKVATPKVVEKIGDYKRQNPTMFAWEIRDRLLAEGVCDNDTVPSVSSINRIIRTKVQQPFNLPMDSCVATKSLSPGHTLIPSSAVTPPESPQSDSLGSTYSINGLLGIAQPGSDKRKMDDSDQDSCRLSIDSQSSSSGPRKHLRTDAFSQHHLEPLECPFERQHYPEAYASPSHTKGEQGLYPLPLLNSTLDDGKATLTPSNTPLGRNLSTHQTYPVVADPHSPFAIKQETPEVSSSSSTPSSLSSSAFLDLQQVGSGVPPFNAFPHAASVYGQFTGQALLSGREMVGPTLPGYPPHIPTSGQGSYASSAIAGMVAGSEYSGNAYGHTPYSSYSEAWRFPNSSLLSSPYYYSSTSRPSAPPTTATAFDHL
# Sequence of Potassium channel subfamily K member 9 (Q9NPC2 whole entry): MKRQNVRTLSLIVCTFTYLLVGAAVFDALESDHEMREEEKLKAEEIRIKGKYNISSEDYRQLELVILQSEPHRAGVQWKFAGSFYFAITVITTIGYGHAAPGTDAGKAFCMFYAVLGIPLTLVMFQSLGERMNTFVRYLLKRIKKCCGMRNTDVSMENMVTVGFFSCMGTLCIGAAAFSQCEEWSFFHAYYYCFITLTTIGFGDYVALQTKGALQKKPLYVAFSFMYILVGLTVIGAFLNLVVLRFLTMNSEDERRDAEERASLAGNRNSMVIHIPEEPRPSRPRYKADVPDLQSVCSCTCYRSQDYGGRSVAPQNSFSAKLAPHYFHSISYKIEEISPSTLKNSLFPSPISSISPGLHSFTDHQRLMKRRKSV
# Sequence of Vasopressin V1b receptor (P47901 whole entry): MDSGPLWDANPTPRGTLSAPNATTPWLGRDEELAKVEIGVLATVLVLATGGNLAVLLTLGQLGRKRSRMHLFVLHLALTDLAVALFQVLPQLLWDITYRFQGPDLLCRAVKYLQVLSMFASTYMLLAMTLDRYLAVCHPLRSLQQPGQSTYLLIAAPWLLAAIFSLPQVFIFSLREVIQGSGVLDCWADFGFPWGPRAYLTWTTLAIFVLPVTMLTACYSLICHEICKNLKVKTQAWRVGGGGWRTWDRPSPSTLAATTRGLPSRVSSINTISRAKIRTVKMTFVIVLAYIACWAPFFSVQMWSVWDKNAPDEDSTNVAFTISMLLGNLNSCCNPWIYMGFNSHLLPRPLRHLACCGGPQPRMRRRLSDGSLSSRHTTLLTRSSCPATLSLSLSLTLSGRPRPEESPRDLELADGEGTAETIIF
# Sequence of Potassium channel subfamily K member 3 (O14649 whole entry): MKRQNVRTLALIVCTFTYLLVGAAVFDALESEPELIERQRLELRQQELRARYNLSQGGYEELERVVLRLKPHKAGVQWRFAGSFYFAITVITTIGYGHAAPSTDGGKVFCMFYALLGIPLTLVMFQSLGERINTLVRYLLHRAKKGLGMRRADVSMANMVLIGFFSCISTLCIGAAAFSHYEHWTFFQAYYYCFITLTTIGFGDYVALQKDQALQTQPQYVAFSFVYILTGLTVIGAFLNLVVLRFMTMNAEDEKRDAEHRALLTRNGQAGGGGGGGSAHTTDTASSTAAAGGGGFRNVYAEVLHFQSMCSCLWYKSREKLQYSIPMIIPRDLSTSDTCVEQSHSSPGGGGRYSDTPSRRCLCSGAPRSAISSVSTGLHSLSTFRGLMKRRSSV
# Sequence of Endoplasmic reticulum aminopeptidase 2 (Q6P179 whole entry): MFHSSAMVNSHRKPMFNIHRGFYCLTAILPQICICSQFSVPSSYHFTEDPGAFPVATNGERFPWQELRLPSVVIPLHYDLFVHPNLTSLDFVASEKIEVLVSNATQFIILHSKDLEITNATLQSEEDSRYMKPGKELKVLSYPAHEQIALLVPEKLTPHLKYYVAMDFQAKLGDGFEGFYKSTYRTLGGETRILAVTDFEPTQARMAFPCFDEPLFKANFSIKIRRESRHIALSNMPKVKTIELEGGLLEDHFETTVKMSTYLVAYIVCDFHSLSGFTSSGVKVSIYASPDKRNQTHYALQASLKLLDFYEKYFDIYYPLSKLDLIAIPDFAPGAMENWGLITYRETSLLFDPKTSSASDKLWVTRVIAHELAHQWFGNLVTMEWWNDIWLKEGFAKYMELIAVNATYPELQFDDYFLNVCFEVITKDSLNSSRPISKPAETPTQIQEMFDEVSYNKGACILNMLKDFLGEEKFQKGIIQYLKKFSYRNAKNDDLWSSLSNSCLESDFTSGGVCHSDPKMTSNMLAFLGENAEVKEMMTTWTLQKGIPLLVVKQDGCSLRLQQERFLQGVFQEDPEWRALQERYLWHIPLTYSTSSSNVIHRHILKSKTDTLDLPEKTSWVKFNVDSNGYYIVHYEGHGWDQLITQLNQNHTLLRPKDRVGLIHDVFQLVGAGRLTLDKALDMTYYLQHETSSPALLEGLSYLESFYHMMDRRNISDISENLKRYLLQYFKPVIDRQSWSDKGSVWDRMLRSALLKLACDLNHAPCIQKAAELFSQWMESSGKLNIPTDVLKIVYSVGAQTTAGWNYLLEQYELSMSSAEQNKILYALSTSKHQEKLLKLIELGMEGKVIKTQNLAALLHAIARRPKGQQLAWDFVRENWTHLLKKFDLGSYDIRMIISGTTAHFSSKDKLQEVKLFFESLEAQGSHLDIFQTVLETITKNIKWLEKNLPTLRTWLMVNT
# Sequence of C-X-C chemokine receptor type 4 (P61073 whole entry): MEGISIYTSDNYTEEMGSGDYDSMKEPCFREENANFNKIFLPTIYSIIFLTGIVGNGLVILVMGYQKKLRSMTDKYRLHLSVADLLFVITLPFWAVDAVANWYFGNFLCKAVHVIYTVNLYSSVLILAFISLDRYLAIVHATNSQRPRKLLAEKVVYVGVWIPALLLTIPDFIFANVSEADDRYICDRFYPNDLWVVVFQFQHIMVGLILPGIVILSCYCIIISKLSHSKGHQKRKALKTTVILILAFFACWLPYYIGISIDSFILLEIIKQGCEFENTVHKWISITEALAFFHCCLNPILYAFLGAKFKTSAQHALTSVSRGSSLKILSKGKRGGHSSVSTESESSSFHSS
smiles,measurement,setting,value
C[C@H](CO)N1C[C@H](C)[C@@H](CN(C)CC2CC2)Oc2c(NC(=O)Nc3ccc(C(F)(F)F)cc3)cccc2C1=O,AC50,[1],1.87 µM (active)
same,AC50,[2],> 22 µM (inactive)
same,AC50,[3],16.9 µM (active)
N#C[C@H]1[C@@H](c2ccc(C#Cc3ccc(F)cc3)cc2)[C@H](CO)N1C(=O)Nc1ccc(F)cc1,AC50,Paired box protein Pax-8,12.3 µM (active)
same,AC50,[4],14.1 µM (active)
same,AC50,[5],19.6 µM (active)
same,AC50,[6],44.7 µM (active)
same,AC50,[7],23.5 µM (active)
same,AC50,[8],14 µM (active)
same,AC50,[9],30.1 µM (active)
same,AC50,[10],19.2 µM (active)
same,AC50,[11],20.5 µM (active)
same,AC50,[12],21.1 µM (active)
same,AC50,[13],13.2 µM (active)
Oc1ccc(CCN2CCc3ccccc3C2)cc1O,IC50,[14],7.9 µM (active)
Cc1cccc(C(=O)Nc2cccc(NC(=O)c3ccccc3OCC(C)C)c2)c1,IC50,[15],3.39 µM (active)
same,IC50,[16],0.206 µM (active)
O=C(C1CCN(c2ccccn2)CC1)N(CC1CC1)c1ccc(Cl)cc1,IC50,[17],0.0288 µM (active)
same,IC50,Vasopressin V1b receptor,18.9 µM (inactive)
same,IC50,Vasopressin V2 receptor,28.3 µM (inactive)
same,IC50,[18],9.6 µM (active)
COc1cc(C(=O)NC2CC3CCCC(C2)N3CC(=O)Nc2ccc(C)cc2)cc(OC)c1OC (stereo not drawn),IC50,[19],> 79 µM (inactive)
same,IC50,[20],> 79 µM (inactive)
